Reference: patent US11172674B2, “Preservation solutions” (ORGAN PRESERVATION SOLUTIONS LIMITED, priority 2017, dated 2021)

Experiments:
[1] = Stability of aspirin in preservation solution on storage (HPLC); format: physicochemical
Source text: FIG. 1 illustrates the stability of aspirin in a preservation solution: HPLC methods were developed to measure the concentration of aspirin and salicylic acid in the Prior Art solution. Aspirin is rapidly hydrolysed to salicylic acid and acetic acid during storage. […] As an example, FIG. 1 illustrates that storage of the solution for 8 weeks results in 100% of the aspirin converting to salicylic acid and the production of equimolar amounts of damaging acetic acid.

human cells = conditions: Heeneman et al 1993; cited from earlier work

## CC(=O)Oc1ccccc1C(=O)O [aspirin, acetylsalicylic acid]
[1]; Prior Art solution, after 8 weeks storage, HPLC
  parent compound remaining: none of the parent compound remains
[1]; storage of the prior art solution for 8 weeks
  aspirin converting to salicylic acid: 100%

## N [ammonia]
Human cells
  concentration toxic to human cells: 300 µM
